Results on 4 compounds are retold here after paper PMC12806454 (Quantitative Biology, 2024).

Each structure is given as a SMILES string.

The conditions of data set [1]: rat, in vivo, iv; cited from earlier work.
The target of a further data set is Mpro of HKU1 (Human coronavirus HKU1, UniProt P0C6X2). Briefly: biochemical.
The next data set addresses Mpro of NL63 (Human coronavirus NL63, UniProt P0C6X5). Briefly: biochemical.
In another data set the target is Mpro of SARS-CoV-1 (Severe acute respiratory syndrome coronavirus, UniProt P0C6X7). Briefly: biochemical.
In a further data set the target is Mpro of MERS (Middle East respiratory syndrome-related coronavirus, UniProt K9N7C7). Briefly: biochemical.
Chain of Mpro of MERS (K9N7C7 3248-3553 limits assumed): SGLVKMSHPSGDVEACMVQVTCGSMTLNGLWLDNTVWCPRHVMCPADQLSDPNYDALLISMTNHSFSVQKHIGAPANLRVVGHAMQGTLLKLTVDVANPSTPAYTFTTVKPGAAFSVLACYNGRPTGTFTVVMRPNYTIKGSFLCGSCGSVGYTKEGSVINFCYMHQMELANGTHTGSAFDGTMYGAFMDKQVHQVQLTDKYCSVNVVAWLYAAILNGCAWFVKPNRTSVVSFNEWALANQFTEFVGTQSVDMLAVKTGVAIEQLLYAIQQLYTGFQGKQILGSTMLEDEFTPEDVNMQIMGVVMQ
The target in a further data set is Mpro of 229E (Human coronavirus 229E, UniProt P0C6X1). Briefly: biochemical.
Chain of Mpro of 229E (P0C6X1 2966-3267): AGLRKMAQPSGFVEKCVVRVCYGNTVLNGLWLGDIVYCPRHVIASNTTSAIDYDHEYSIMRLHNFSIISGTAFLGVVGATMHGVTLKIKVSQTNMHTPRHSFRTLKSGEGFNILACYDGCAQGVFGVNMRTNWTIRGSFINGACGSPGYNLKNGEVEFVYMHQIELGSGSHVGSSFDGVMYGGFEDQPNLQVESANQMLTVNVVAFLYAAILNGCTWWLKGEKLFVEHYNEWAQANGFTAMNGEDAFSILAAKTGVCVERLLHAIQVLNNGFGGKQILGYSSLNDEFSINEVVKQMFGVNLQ
For another data set, the target named is Mpro of OC43 (Human coronavirus OC43, UniProt P0C6X6). Briefly: biochemical.
Chain of Mpro of OC43 (P0C6X6 3247-3549): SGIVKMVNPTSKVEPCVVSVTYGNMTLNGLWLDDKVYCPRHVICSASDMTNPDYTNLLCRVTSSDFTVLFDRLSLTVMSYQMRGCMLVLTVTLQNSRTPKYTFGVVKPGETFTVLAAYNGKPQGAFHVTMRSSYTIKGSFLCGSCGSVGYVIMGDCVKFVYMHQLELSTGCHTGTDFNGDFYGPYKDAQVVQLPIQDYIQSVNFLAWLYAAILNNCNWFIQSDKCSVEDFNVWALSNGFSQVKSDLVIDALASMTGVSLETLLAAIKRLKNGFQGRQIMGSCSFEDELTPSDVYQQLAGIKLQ

Chain of Mpro of NL63 (P0C6X5 2940-3242): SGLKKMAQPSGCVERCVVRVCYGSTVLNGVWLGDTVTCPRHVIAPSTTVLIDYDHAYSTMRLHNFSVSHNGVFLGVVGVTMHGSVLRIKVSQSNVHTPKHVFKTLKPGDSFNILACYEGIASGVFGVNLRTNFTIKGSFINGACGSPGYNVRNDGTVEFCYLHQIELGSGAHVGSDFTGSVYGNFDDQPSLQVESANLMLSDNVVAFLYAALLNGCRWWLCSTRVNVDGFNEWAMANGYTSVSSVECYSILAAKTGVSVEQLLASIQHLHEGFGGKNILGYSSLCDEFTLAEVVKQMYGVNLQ
Chain of Mpro of HKU1 (P0C6X2 3335-3637): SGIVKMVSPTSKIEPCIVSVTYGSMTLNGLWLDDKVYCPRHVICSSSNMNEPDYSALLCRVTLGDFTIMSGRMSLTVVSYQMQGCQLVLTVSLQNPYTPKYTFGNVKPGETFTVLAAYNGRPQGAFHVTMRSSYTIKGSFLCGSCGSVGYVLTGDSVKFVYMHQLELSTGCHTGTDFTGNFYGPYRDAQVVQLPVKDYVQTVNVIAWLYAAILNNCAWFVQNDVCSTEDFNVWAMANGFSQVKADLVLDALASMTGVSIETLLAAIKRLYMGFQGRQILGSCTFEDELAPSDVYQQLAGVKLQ

In general, half-life refers to the time needed for the level to fall by half in the phase considered. On to `CC(C)(C)[C@H](NC(=O)C(F)(F)F)C(=O)N1C[C@H]2[C@@H]([C@H]1C(=O)N[C@H](C#N)C[C@@H]1CCNC1=O)C2(C)C` [Nirmatrelvir, nirmatrelvir], for which the half-life in data set [1] is reported as 0.5 h.
As usually defined, the IC50 is the midpoint of a concentration-inhibition curve. Higher therefore signals weaker potency in that assay. Consider `CC(C)CC(NC(=O)OCc1ccccc1)C(=O)NC(CC1CCNC1=O)C(O)S(=O)(=O)O` (centres unmarked) [GC376], for which the IC50 on Mpro of HKU1 came out at 73.3 nM; against Mpro of NL63 it was 438 nM.
Regarding `O=C(NC1CCCC1)C(=O)[C@H](C[C@@H]1CCNC1=O)NC(=O)[C@@H]1[C@H]2CCC[C@H]2CN1C(=O)[C@@H](NC(=O)C(F)(F)F)C1CCCCC1` [Leritrelvir, leritrelvir], the IC50 at Mpro of SARS-CoV-1 amounted to 73 nM; on Mpro of HKU1, 52.3 nM; against Mpro of NL63, 272 nM; on Mpro of MERS it was 945 nM; on Mpro of 229E, 101 nM; against Mpro of OC43, 53.2 nM. The half-life in data set [1] is 4.8 h.
`Cn1cnc(Cn2c(=O)[nH]/c(=N\c3cc4cn(C)nc4cc3Cl)n(Cc3cc(F)c(F)cc3F)c2=O)n1` [Ensitrelvir, ensitrelvir]: the half-life in data set [1] was 2.4 h.
